Experimental data: patent US20240148723A1, “MYCOBACTERIUM TUBERCULOSIS COMPOSITIONS AND METHODS” (priority 2021, published 2024)
Several values for one entry are separate records, joined by “and”; a condition that tells them apart may be missing. Equal entries are not always repeated.

Tests used:
[1] = test system: ORA48 PZA-resistant strain with mutation in panD gene; format: cell-based, Mycobacterium tuberculosis
[2] = test system: Z186 PZA-resistant strain with mutation in pncA gene; format: cell-based, Mycobacterium tuberculosis
[3] = test system: PZA-resistant strain (PZA^R) (#6 PncA mutation L159P); format: cell-based, Mycobacterium tuberculosis; conditions: pH 6.8
[4] = test system: Z98 PZA-resistant strain with mutation in pncA gene; format: cell-based, Mycobacterium tuberculosis
[5] = test system: five PZA resistant M. tuberculosis strains; assay: microbe, parasite or virus in culture; format: cell-based; conditions: Mycobacterium tuberculosis, 504 h, pH 6.8, read-out: MIC for PZA
[6] = test system: ORA136 PZA-resistant strain with mutation in panD gene; format: cell-based, Mycobacterium tuberculosis
[7] = test system: M. tuberculosis PZA-resistant strains #6, #78, #98, #106, #186; format: cell-based; conditions: PZA-S1-Plus agar, pH 6.8, 400, 800 and 1600 μg PZA
[8] = test system: Z6 PZA-resistant strain with mutation in pncA gene; format: cell-based, Mycobacterium tuberculosis
[9] = test system: ORA76 PZA-resistant strain with mutation in panD gene; format: cell-based, Mycobacterium tuberculosis

NC(=O)c1cnccn1 [PZA, Pyrazinamide]
MIC of PZA [1]: greater than 300 μg/ml
Percentage of CFU to Z 0 [1]: 3.74% and 3.48% and 3.39% and 3.00%
MIC of PZA [2]: greater than 300 μg/ml
Percentage of CFU to Z 0 [2]: 1.07% and 1.09% and 1.01% and 1.08%
PZA concentration at which the resistant strain grew [3]: 800 µg/mL
MIC of PZA [4]: greater than 300 μg/ml
Percentage of CFU to Z 0 [4]: 6.76% and 6.62% and 5.15% and 5.81%
MIC [5]: > 800 µg/mL
MIC of PZA [6]: greater than 300 μg/ml
Percentage of CFU to Z 0 [6]: 3.70% and 4.19% and 3.37% and 2.56%
growth inhibition, paper disk [7]: no inhibition
MIC of PZA [8]: greater than 300 μg/ml
Percentage of CFU to Z 0 [8]: 9.33% and 10.00% and 8.65% and 12.47%
MIC of PZA [9]: greater than 300 μg/ml
Percentage of CFU to Z 0 [9]: 2.26% and 1.83% and 2.33% and 2.31%
